Nine compounds from ChEMBL document CHEMBL3992544, “Novel 6-methoxycarbonyl indolinones bearing a pyrrole Mannich base moiety as angiokinase inhibitors” (Bioorg Med Chem, 2017) can be followed below.

The structures appear in SMILES notation.

Experiment [1] has as its system HT-29. The experiment is described as follows: Antiproliferative activity against human HT-29 cells after 72 hrs by MTT assay. Particulars: HT-29, 72 h.
The next experiment deals with SK-OV-3. The experiment can be described thus: Antiproliferative activity against human SKOV3 cells after 72 hrs by MTT assay. The conditions noted are these: SK-OV-3, 72 h.
Another experiment concerns HeLa. The experiment can be described thus: Antiproliferative activity against human HeLa cells after 72 hrs by MTT assay.
Experiment [2] deals with Platelet-derived growth factor receptor beta (Homo sapiens, UniProt P09619). The experiment is described as follows: Inhibition of human N-terminal GST-tagged PDGFRbeta cytoplasmic domain (557 to 1106 residues) expressed in baculovirus expression system preincubated for 10 mins followed by FAM-labeled peptide substrate addition measured after 1 hr by mobility shift assay.
Sequence of Platelet-derived growth factor receptor beta (P09619 whole entry, the tested form may be a part): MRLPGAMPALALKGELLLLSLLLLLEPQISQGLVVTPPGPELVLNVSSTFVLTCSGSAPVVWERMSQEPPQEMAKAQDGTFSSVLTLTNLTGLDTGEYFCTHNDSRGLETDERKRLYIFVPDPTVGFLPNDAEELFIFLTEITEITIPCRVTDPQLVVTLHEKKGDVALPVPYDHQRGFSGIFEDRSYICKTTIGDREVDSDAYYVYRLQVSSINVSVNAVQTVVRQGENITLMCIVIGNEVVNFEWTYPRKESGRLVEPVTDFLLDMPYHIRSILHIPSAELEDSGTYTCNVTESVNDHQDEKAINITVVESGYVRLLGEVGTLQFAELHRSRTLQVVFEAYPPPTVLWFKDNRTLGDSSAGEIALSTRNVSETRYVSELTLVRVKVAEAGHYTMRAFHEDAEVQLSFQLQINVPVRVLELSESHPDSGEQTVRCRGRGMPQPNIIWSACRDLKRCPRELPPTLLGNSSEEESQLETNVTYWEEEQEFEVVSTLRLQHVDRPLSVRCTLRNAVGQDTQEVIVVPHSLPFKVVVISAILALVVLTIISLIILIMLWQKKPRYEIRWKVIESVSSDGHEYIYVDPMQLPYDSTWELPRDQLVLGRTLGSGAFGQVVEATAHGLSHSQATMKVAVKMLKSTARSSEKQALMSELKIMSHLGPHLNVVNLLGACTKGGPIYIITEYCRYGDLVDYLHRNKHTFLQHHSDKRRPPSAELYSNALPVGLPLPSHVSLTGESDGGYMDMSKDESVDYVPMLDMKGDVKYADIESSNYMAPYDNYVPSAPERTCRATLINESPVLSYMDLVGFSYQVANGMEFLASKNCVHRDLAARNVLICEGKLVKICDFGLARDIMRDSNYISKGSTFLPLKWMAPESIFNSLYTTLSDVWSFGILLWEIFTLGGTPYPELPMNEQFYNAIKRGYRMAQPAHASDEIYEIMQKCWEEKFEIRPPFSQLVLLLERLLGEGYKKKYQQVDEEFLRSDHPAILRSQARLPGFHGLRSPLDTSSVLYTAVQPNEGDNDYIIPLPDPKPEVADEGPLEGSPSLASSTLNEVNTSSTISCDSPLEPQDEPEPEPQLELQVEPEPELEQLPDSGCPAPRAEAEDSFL

In experiment [3] the test system is HT-29. The experiment can be described thus: Induction of apoptosis in human HT-29 cells after 48 hrs by acridine orange/ethidium bromide staining based confocal laser scanning microscopic method. It is filed as functional, cell-based.
Experiment [4] deals with Vascular endothelial growth factor receptor 1 (Homo sapiens, UniProt P17948). The experiment can be described thus: Inhibition of recombinant human GST-tagged VEGFR1 cytoplasmic domain (781 to 1338 residues) expressed in baculovirus expression system preincubated for 10 mins followed by FAM-labeled peptide substrate addition measured after 1 hr by mobility shift assay.
Sequence of Vascular endothelial growth factor receptor 1 (P17948 whole entry, the tested form may be a part): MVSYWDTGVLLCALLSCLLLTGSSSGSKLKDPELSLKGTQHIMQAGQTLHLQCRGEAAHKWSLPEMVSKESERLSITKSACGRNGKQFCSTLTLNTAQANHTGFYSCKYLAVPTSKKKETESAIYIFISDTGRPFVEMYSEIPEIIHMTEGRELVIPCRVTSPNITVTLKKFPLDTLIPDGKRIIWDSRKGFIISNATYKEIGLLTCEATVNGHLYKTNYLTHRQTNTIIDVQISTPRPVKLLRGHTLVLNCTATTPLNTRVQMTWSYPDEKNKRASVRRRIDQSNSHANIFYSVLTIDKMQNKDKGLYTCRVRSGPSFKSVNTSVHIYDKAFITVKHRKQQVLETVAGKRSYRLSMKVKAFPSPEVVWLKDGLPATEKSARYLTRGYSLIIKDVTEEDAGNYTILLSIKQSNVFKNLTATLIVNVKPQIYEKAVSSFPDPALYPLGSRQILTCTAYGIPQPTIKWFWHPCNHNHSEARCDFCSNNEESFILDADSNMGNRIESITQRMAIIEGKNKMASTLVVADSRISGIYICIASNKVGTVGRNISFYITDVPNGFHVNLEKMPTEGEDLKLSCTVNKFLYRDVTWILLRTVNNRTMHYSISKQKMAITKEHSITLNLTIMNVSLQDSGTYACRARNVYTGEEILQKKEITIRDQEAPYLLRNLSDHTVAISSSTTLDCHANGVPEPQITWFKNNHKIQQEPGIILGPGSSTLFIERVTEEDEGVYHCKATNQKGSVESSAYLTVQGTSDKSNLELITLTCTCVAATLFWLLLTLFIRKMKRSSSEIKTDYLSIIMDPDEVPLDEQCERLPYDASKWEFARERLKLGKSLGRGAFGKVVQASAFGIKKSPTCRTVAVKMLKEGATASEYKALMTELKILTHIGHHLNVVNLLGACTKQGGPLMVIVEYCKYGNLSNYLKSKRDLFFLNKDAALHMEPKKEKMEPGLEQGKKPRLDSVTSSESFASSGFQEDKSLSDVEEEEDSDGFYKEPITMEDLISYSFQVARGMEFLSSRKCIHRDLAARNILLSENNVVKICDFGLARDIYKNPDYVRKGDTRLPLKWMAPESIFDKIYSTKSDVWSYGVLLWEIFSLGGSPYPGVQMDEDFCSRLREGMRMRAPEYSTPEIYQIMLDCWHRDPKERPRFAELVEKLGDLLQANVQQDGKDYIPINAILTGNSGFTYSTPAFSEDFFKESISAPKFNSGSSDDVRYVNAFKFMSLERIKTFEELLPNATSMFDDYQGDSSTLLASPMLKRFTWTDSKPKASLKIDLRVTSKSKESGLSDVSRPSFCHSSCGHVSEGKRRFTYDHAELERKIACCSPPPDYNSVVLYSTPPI
For experiment [5], the target named is Fibroblast growth factor receptor 1 (Homo sapiens, UniProt P11362). The experiment can be described thus: Inhibition of recombinant human GST-tagged FGFR1 cytoplasmic domain (398 to 822 residues) expressed in baculovirus expression system preincubated for 10 mins followed by FAM-labeled peptide substrate addition measured after 1 hr by mobility shift assay.
Sequence of Fibroblast growth factor receptor 1 (P11362 whole entry, the tested form may be a part): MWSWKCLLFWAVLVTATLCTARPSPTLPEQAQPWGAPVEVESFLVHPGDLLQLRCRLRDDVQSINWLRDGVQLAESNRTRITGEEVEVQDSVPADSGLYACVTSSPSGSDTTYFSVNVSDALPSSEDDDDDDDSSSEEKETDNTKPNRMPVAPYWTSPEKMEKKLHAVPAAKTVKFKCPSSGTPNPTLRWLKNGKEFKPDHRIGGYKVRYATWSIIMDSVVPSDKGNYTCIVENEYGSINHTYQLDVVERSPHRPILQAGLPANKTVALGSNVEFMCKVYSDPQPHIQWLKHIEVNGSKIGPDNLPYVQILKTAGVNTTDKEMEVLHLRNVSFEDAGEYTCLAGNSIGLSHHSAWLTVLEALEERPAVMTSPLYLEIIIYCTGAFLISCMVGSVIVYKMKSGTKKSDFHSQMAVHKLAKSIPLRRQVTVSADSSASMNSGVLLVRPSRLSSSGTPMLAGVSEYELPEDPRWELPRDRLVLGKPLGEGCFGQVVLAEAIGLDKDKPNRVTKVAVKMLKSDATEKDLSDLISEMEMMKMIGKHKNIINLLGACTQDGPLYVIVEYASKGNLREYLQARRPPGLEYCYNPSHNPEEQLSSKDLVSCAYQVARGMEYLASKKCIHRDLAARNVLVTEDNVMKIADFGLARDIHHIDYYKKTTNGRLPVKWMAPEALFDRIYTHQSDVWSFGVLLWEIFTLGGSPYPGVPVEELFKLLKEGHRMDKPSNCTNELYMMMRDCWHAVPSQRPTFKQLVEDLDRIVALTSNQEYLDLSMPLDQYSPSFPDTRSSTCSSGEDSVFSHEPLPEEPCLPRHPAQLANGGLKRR

Turning to `COC(=O)c1ccc2c(c1)NC(=O)/C2=C(\Nc1ccc(N(C)C(=O)CN2CCN(C)CC2)cc1)c1ccccc1` [NINTEDANIB], the IC50 was determined as 4900 nM in the experiment with HT-29 [1], 28800 nM with SK-OV-3 and 51600 nM with HeLa.
Consider `CCN(CC)Cc1cccn1-c1ccc(N/C(=C2\C(=O)Nc3cc(C(=O)OC)ccc32)c2ccccc2)cc1`, for which the concentration for half-maximal inhibition (IC50) in experiment [2] came out at 31.4 nM.
Same read-out and setting: then `COC(=O)c1ccc2c(c1)NC(=O)/C2=C(\Nc1ccc(-n2cccc2CN2CCCC2)cc1)c1ccccc1`, with 27.1 nM.
Still for that read-out and setting: then `COC(=O)c1ccc2c(c1)NC(=O)/C2=C(\Nc1ccc(-n2cccc2CN2CCCCC2)cc1)c1ccccc1`, with 45.5 nM; and `COC(=O)c1ccc2c(c1)NC(=O)/C2=C(\Nc1ccc(Cn2cccc2CN2CCN(C)CC2)cc1)c1ccccc1`, with 67.8 nM.
Regarding `COC(=O)c1ccc2c(c1)NC(=O)/C2=C(\Nc1ccc(-n2cccc2CN2CCN(C)CC2)cc1)c1ccccc1`, the IC50 came to 83.2 nM in experiment [2], 3120 nM in the experiment with HT-29 [1], 25900 nM in the experiment on SK-OV-3 and 30400 nM in the experiment with HeLa.
Consider `COC(=O)c1ccc2c(c1)NC(=O)/C2=C(\Nc1ccc(-n2cccc2CN2CCNCC2)cc1)c1ccccc1`, for which, in experiment [2], the IC50 came to 65.2 nM.
For `COC(=O)c1ccc2c(c1)NC(=O)/C2=C(\Nc1ccc(-n2cccc2CN(C)C)cc1)c1ccccc1`, the IC50 in experiment [2] was 14.3 nM; in the experiment with HT-29 [1], 980 nM; in the experiment with SK-OV-3, 5220 nM; in the experiment with HeLa, 53200 nM; in experiment [4] it was 99.2 nM; in experiment [5], greater than 500 nM. Further, in the experiment on HT-29 [3], the Activity entry was “Dose-dependent effect”.
On to `COC(=O)c1ccc2c(c1)NC(=O)/C2=C(\Nc1ccc(Cn2cccc2CN(C)C)cc1)c1ccccc1`, for which the IC50 in experiment [2] was determined as 29.8 nM.
